A short description of data set [1]: Determining the heat of solution (enthalpy of solution) by solution calorimeter. In kind it is physicochemical. As to conditions: chemically pure water, 25° C., mass corrected by water content. The procedure:
D.4) Determining the Heat of Solution (Enthalpy of Solution) Ec:
The solution enthalpy is determined using a solution calorimeter 2225 Precision Solution Calorimeter made by Messrs. Thermometric. The heat of solution is calculated by means of the change in temperature occurring (as a result of the dissolving process) and the system-related change in temperature calculated from the base line. Before and after the ampoule is broken, electrical calibration is carried out with an integrated heating resistor of a precisely known power. A known heat output is delivered to the system over a set period and the jump in temperature is determined.
The electrical calibration takes place during the measurement, once before and once after the breakage of the ampoule. The calibration after the breakage of the ampoule is used for the evaluation.
As the mass of the tiotropium bromide micronisate weighed out has to be corrected by the water content of the material, the unsealed ampoules together with about 1 g of the test substance are left to stand open for at least 4 hours. After this equilibration time the ampoules are sealed with the silicon stoppers and the water content of the bulk sample is determined by Karl-Fischer titration. […]
The corrected mass mc determined by this calculation is used as the input value (=weight) to calculate the solution enthalpy measured.

Data set [2] is described as follows: Determining particle size by laser diffraction (Fraunhofer diffraction). In kind it is physicochemical. Conditions: air dispersal. An excerpt:
The micronisate of tiotropium bromide obtainable by the above method has a characteristic particle size X50 of between 1.0 μm and 3.5 μm, preferably between 1.1 μm and 3.3 μm, most preferably between 1.2 μm and 3.0 μm and Q(5.8) of more than 60%, preferably more than 70%, most preferably more than 80%. The characteristic value X50 denotes the median value of the particle size below which 50% of the particles fall, with regard to the distribution by volume of the individual particles. The characteristic value Q(5.8) corresponds to the quantity of particles below 5.8 μm , based on the volume distribution of the particles. The particle sizes were determined within the scope of the present invention by laser diffraction (Fraunhofer diffraction). More detailed information on this subject can be found in the experimental descriptions of the invention.
D.2) Determining Particle Size by Laser Diffraction (Fraunhofer Diffraction)
To determine the particle size the powder is fed into a laser diffraction spectrometer by means of a dispersing unit.

Molecules are shown by their SMILES.

Turning to `C[N+]1(C)C2C[C@H](OC(=O)C(O)(c3cccs3)c3cccs3)C[C@H]1[C@H]1OC21` (stereo partly drawn) [tiotropium bromide micronisate, (1α,2β,4β,5α,7β)-7-[(hydroxydi-2-thienylacetyl)oxy]-9,9-dimethyl-3-oxa-9-azoniatricyclo[3.3.1.0^2,4]nonane-bromide], the “specific enthalpy of solution (heat of solution)” value in data set [1] is “more than 65 Ws/g”. In addition, the “Q(5.8) (quantity of particles below 5.8 μm, based on the volume distribution)” value in data set [2] is recorded as “more than 60%”.
